Data: PMC12118186 (2023)

Assays:
[1] = tested on: SA1 (DNA, aptamer) ACGACCTGACTTCCCATGGGATCTTCACTTAAATGGTCGT; test: ThT fluorescence displacement titration; conditions: 100 mM Na+, pH 6.0, 1 μM DNA; for binding: 1 mM Mg2+, MES, 2 μM thioflavin T, 30 μM compound
[2] = tested on: SA1 (DNA, aptamer) ACGACCTGACTTCCCATGGGATCTTCACTTAAATGGTCGT; test: fluorescence enhancement; conditions: 100 mM Na+, 1 mM Mg2+ (Figure 2 legend; methods: 5 mM); 10 mM MES, pH 6.0; 1 μM DNA, 2 μM thioflavin T; described as nonspecific
[3] = tested on: SA1 (DNA, aptamer) ACGACCTGACTTCCCATGGGATCTTCACTTAAATGGTCGT; test: ITC; conditions: 100 mM Na+, 5 mM Mg2+; 10 mM MES, pH 6.0, 25°C; one-site fit; 20 μM aptamer
[4] = tested on: SA2 (DNA, aptamer) ACGACGGGGGACCGGAAACAAGTGCAAAACGCTTCGTCGT; test: ThT fluorescence displacement titration; conditions: 100 mM Na+, 1 mM Mg2+ (Figure 2 legend; methods: 5 mM); 10 mM MES, pH 6.0; apparent; tracer 2 μM thioflavin T; signal change only about 20%

CC(=O)Oc1ccccc1C(=O)O
binding [1]: no

Cc1ccc2c(c1)sc(-c1ccc(N(C)C)cc1)[n+]2C
binding [2]: yes

O=C(O)c1ccc(O)cc1
binding [1]: weak

O=C(O)c1ccccc1O
Kd [3]: 26.7 ± 5.6 µM | Kd ([1]; 1 mM Mg2+ (Figure 2 legend; methods: 5 mM), 10 mM MES, apparent, tracer 2 μM thioflavin T): 5.8 µM | Kd [4]: 11 µM
